Results reported in patent US12590062B2, “PD-1/PD-L1 inhibitors” (Gilead Sciences, Inc., priority 2017, dated 2026).
pEC50, pIC50: −log10 of the molar value.

Assays:
PD-L1 = biological target: T1, PD-L1 (Homo sapiens, UniProt Q9NZQ7); experiment: PD-L1/PD-L1 dimerization biochemical protein-protein interaction assay (ALPHA); format: binding; conditions: compound-induced PD-L1 dimerization, head prints '1 nM' (0.5 nM His-tagged PD-L1 and 0.5 nM FLAG-tagged PD-L1), read-out: AC50 PDL1 Dimer Alpha 1 nM
T1 construct: determine if they can specifically dimerize the extracellular domains of PD-L1
Method in brief: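 After 2 h at 25 °C with compound, His- and FLAG-tagged PD-L1 ECDs (each 0.5 nM final; 25 mM Hepes pH 7.4, 150 mM NaCl) were detected by sequential anti-His acceptor and anti-FLAG donor bead incubations. Dose-response curves fitted to four-parameter equation for AC50.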

PD-1/PD-L1 interaction = biological target: T2, PD-1/PD-L1 interaction (Homo sapiens, UniProt Q9NZQ7); experiment: PD-1/PD-L1 NFAT reporter co-culture assay; format: cell-based; conditions: Jurkat PD-1 NFAT-luciferase cells co-cultured with aAPC-PD-L1 CHO cells, 6 hrs at 37° C.; read-out: EC50 NFAT Luciferase
T2 construct: expressed in transfected cells; host or cells: CHO cells (aAPC-PD-L1) co-cultured with Jurkat cells overexpressing PD-1 and an NFAT-luciferase reporter
Method in brief: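 Compounds are scored by restoration of NFAT-luciferase signal in PD-1-expressing Jurkat cells cultured 6 h at 37 °C on CHO cells presenting anti-CD3 and PD-L1; EC50 values derive from four-parameter curve fitting.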

PD-1/PD-L1 = PD-1/PD-L1 (Homo sapiens, UniProt Q9NZQ7); experiment: PD-1/PD-L1 biochemical protein-protein interaction assay (ALPHA); format: binding; conditions: 0.3 nM His tagged PD-L1, 2.5 nM biotinylated Fc-PD-1, 60 minutes at 25° C., read-out: IC50 PD-L1-PD-1 Alpha IC50-mono PD-L1-fcP-D1
Method in brief: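 IC50 values derive from four-parameter fits of ALPHA signal decrease. Assay: 0.3 nM His-tagged PD-L1 with 2.5 nM biotinylated Fc-PD-1, Hepes pH 7.4 with 0.005% Tween 20 and 0.01% BSA, 60 min at 25° C, then anti-His acceptor and streptavidin donor beads.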

T2 sequence (Q9NZQ7 19-290): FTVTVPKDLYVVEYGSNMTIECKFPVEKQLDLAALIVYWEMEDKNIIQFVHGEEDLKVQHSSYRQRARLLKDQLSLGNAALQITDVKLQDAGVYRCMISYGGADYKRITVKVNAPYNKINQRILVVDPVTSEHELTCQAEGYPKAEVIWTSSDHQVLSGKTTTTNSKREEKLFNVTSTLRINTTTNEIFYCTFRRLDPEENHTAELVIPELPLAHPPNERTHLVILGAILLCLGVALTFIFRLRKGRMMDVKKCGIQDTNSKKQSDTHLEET
T1 sequence (Q9NZQ7 19-238 limits assumed): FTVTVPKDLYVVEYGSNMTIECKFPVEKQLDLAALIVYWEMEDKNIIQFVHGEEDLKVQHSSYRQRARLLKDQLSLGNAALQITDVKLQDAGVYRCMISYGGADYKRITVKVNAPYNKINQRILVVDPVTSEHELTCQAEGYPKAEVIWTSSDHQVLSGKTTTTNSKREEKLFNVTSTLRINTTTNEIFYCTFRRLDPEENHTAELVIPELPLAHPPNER
T1 sequence (Q9NZQ7 19-238 limits assumed): as above
Sequence of PD-1/PD-L1 (Q9NZQ7 19-238 limits assumed): as above

Structure (SMILES)	AC50 (PD-L1) [nM]	pEC50 (PD-1/PD-L1 interaction)	pIC50 (PD-1/PD-L1)
Cc1c(COc2nc(OCc3cccnc3)c(CNC[C@@H](O)CC(=O)O)cc2Br)cccc1-c1cccc(COc2nc(OCc3cccnc3)c(CNC[C@@H](O)CC(=O)O)cc2Br)c1C [Example 137, (3S,3′S)-4,4′-((((((2,2′-dimethyl-[1,1′-biphenyl]-3,3′-diyl)bis(methylene))bis(oxy))bis(5-bromo-2-(pyridin-3-ylmethoxy)pyridine-6,3-diyl))bis(methylene))bis(azanediyl))bis(3-hydroxybutanoic acid)]	195	5.84	9.22
COc1ccc(-c2cccc(-c3cccc(COc4cc(OCc5cncc(C#N)c5)c(CN[C@@](C)(CO)C(=O)O)cc4Cl)c3C)c2C)cc1CN [Example 440]	113	6.60	9.94
Cc1c(COc2cc(OCc3cncc(C#N)c3)c(CN[C@H]3CC[C@@H](C(=O)O)C3)cc2Cl)cccc1-c1cccc(-c2ccc(OCCNCCO)cc2)c1C [Example 338, (1R,3S)-3-((5-chloro-2-((5-cyanopyridin-3-yl)methoxy)-4-((4″-(2-((2-hydroxyethyl)amino)ethoxy)-2,2′-dimethyl-[1,1′:3′,1″-terphenyl]-3-yl)methoxy)benzyl)amino)cyclopentane-1-carboxylic acid]	140	5.98	9.75
COc1nc(O[C@H]2CCc3c(-c4cccc(-c5cnc6c(CNC[C@@H]7CCC(=O)N7)cn(C)c6n5)c4Cl)cccc32)c(Cl)cc1CN1CC[C@@H](C(=O)O)C1 [Example 528]	63.3	7.05	10.17
Cc1c(COc2cc(OCc3cncc(C#N)c3)c(CNC[C@@H](O)CC(=O)O)cc2Cl)cccc1-c1cccc(-c2cnc3c(Cl)cc(CNC[C@@H](O)CC(=O)O)cc3c2)c1C [Example 297, (S)-4-(((3-(3′-((4-((((S)-3-carboxy-2-hydroxypropyl)amino)methyl)-2-chloro-5-((5-cyanopyridin-3-yl)methoxy)phenoxy)methyl)-2,2′-dimethyl-[1,1′-biphenyl]-3-yl)-8-chloroquinolin-6-yl)methyl)amino)-3-hydroxybutanoic acid]	187	6.58	9.73
COc1ccc2cc(-c3cccc(-c4cccc(COc5cc(OCc6cncc(C#N)c6)c(CNC[C@@H](O)CC(=O)O)cc5Cl)c4C)c3C)ccc2c1CNC[C@@H](O)CC(=O)O [Example 468]	131	6.74	9.25
Cc1c(COc2cc(OCc3cncc(C#N)c3)c(CN[C@@](C)(CO)C(=O)O)cc2Cl)cccc1-c1cccc(-c2ccc(OCCNC[C@@H]3CCC(=O)N3)cc2)c1C [Example 517]	91.7	6.81	10.19
CS(=O)(=O)c1cncc(COc2nc(OCc3cccc(-c4cccc(-c5ccc(OCCNCCO)cc5)c4Cl)c3Cl)c(Cl)cc2CN2C[C@@H](O)C[C@H]2C(=O)O)c1 [Example 303, (2S,4S)-1-((5-chloro-6-((2,2′-dichloro-4″-(2-((2-hydroxyethyl)amino)ethoxy)-[1,1′:3′,1″-terphenyl]-3-yl)methoxy)-2-((5-(methylsulfonyl)pyridin-3-yl)methoxy)pyridin-3-yl)methyl)-4-hydroxypyrrolidine-2-carboxylic acid]	101	6.54	9.78
N#Cc1cc(C#N)cc(COc2nc(OCc3cccc(-c4cccc(-c5ccc(CN6CC7(CCC(=O)N7)C6)cc5)c4Cl)c3Cl)c(Cl)cc2CNC[C@@H](O)CC(=O)O)c1 [Example 567]	68.7	7.07	9.49
Cc1c(COc2cc(OCc3cncc(C#N)c3)c(CNC[C@@H](O)CC(=O)O)cc2Cl)cccc1-c1cccc(-c2cn(CC3CCNC3)nn2)c1C (stereo partly drawn) [Example 331]	500	6.63	9.56
COc1nc(O[C@H]2CCc3c(-c4cccc(-c5ccc(C6=N[C@H](C)CN6)c(OC)n5)c4Cl)cccc32)ccc1CN[C@@](C)(CO)C(=O)O [Example 778]	259	6.67	9.95
COc1nc(O[C@H]2CCc3c(-c4cccc(-c5ccc(CNC[C@@H]6CCC(=O)N6)cc5)c4Cl)cccc32)c(Cl)cc1CN1CC(C(=O)O)C1 [Example 721]	19	7.85	10.19
COc1nc(O[C@H]2CCc3c(-c4cccc(-c5ccc(CNCCO)cc5)c4Cl)cccc32)c(Cl)cc1CNCCO [Example 772]	19.5	≤ 4.30	9.26
COc1nc(-c2cccc(-c3cccc4c3CC[C@@H]4Oc3nc(OCc4cncc(C#N)c4)c(CN[C@@](C)(CO)C(=O)O)cc3Br)c2Cl)ccc1C1=NCCN1 [Example 744]	9.53	7.36	10.19
Cc1c(COc2cc(OCc3cncc(C#N)c3)c(CNC[C@@H](O)CC(=O)O)cc2Cl)cccc1-c1cccc(-c2ccc(CN3CC[C@H](O)C3)cc2)c1C [Example 335, (S)-4-((5-chloro-2-((5-cyanopyridin-3-yl)methoxy)-4-((4″-(((S)-3-hydroxypyrrolidin-1-yl)methyl)-2,2′-dimethyl-[1,1′:3′,1″-terphenyl]-3-yl)methoxy)benzyl)amino)-3-hydroxybutanoic acid]	231	6.36	9.38
Cc1c(COc2cc(OCc3cncc(C#N)c3)c(CNC[C@@H](O)CC(=O)O)cc2Cl)cccc1-c1cccc(-c2ccc3c(c2)CCC3N(C)C)c1C (stereo partly drawn) [Example 381, (3S)-4-((5-chloro-2-((5-cyanopyridin-3-yl)methoxy)-4-((3′-(1-(dimethylamino)-2,3-dihydro-1H-inden-5-yl)-2,2′-dimethyl-[1,1′-biphenyl]-3-yl)methoxy)benzyl)amino)-3-hydroxybutanoic acid]	144	6.66	9.80
COC(=O)[C@@](C)(CO)NCc1cc(Br)c(O[C@H]2CCc3c(-c4cccc(-c5ccc(CNC[C@@H]6CCC(=O)N6)c(OC)n5)c4Cl)cccc32)nc1OCc1cncc(C#N)c1 [Example 743]	82.2	7.30	9.51
COc1nc(-c2cccc(-c3cccc4c3CC[C@@H]4Oc3nc(OC)c(CN4CC[C@H](C(=O)O)C4)cc3Cl)c2Cl)ccc1CN1CC(CO)C1 [Example 704]	66.8	7.96	10.19
Cc1c(COc2cc(OCc3cncc(C#N)c3)c(CNC[C@@H](O)CC(=O)O)cc2Cl)cccc1-c1cccc(-c2ccc(O[C@H]3CCCN(CCO)C3)cc2)c1C [Example 354, (S)-4-((5-chloro-2-((5-cyanopyridin-3-yl)methoxy)-4-((4″-(((S)-1-(2-hydroxyethyl)piperidin-3-yl)oxy)-2,2′-dimethyl-[1,1′:3′,1″-terphenyl]-3-yl)methoxy)benzyl)amino)-3-hydroxybutanoic acid]	342	5.73	9.62
Cc1c(COc2cc(OCc3cncc(C#N)c3)c(CNC[C@@H](O)CC(=O)O)cc2Cl)cccc1-c1cccc(-c2nc3c(Cl)cc(CNC[C@@H](O)CC(=O)O)cn3n2)c1C [Example 393, (S)-4-(((2-(3′-((4-((((S)-3-carboxy-2-hydroxypropyl)amino)methyl)-2-chloro-5-((5-cyanopyridin-3-yl)methoxy)phenoxy)methyl)-2,2′-dimethyl-[1,1′-biphenyl]-3-yl)-8-chloro-[1,2,4]triazolo[1,5-a]pyridin-6-yl)methyl)amino)-3-hydroxybutanoic acid]	84	6.93	10.19
COc1nc(-c2cccc(-c3cccc(-c4ccn5cc(CN(C)C)nc5c4)c3Cl)c2Cl)ccc1CN(C)C [Example 617]	265	≤ 4.30	9.77
Cc1c(COc2cc(OCc3cncc(C#N)c3)c(CN[C@@](C)(CO)C(=O)O)cc2Cl)cccc1-c1cccc(-c2ccc(OCCNCCO)cc2)c1C [Example 311, (S)-2-((5-chloro-2-((5-cyanopyridin-3-yl)methoxy)-4-((4″-(2-((2-hydroxyethyl)amino)ethoxy)-2, 2′-dimethyl-[1, 1′:3′,1″-terphenyl]-3-yl)methoxy)benzyl)amino)-3-hydroxy-2-methylpropanoic acid]	75.5	6.98	10.19
COc1nc(O[C@H]2CCc3c(-c4cccc(-c5cnc6c(CN7CC8(CNC(=O)C8)C7)cn(C)c6n5)c4Cl)cccc32)c(Cl)cc1CN1CC(C(=O)O)C1 [Example 527]	69.9	7.34	10.19
C[C@@](CO)(NCc1cc(Cl)c(O[C@H]2CCc3c(-c4cccc(-c5ccc(OCCNCCO)cc5)c4Cl)cccc32)nc1OCc1cncc(C#N)c1)C(=O)O [Example 674]	11.3	7.36	10.19
Cc1c(COc2cc(OCc3cncc(C#N)c3)c(CNC[C@@H](O)CC(=O)O)cc2Cl)cccc1-c1cccc(-c2ccc(OCCNCCO)c(C(N)=O)c2)c1C [Example 456]	182	5.91	9.57
